Test system: subjects with moderate-to-severe plaque psoriasis
Test: PSSD symptom and sign scores, Example 2
Type: in vivo, human
Conditions: for Change from Baseline in PSSD Sign Score, LSMean / Change from Baseline in PSSD Symptom Score, LSMean: MMRM

Which results are given for `CC(=O)NCCCC[C@@H]1NC(=O)[C@H](Cc2c[nH]c3c(C)cccc23)NC(=O)[C@H]([C@@H](C)O)NC(=O)[C@H](CC(N)=O)NC(=O)[C@@H](NC(C)=O)C(C)(C)SSC(C)(C)[C@@H](C(=O)N[C@@H](Cc2ccc(OCCN)cc2)C(=O)N[C@@H](Cc2ccc3ccccc3c2)C(=O)NC2(C(=O)N[C@@H](CCC(=O)O)C(=O)N[C@@H](CC(N)=O)C(=O)N[C@@H](Cc3cccnc3)C(=O)N(C)CC(N)=O)CCOCC2)NC1=O` [IL-23 receptor antagonist peptide, Ac-[Pen]*-N-T-[W(7-Me)]-[Lys(Ac)]-[Pen]*-Phe[4-(2-aminoethoxy)]-[2-Nal]-[THP]-E-N-[3-Pal]-Sarc-NH2 (*[Pen]-[Pen]* formdisulfidebond)]?
Subjects Achieving PSSD Sign Score 0 (%) (Week 16, 25 mg QD, Baseline Sign Score ≥1, N=43): (2.3%); Subjects Achieving PSSD Symptom Score 0 (%) (Week 16, 25 mg QD, Baseline Symptom Score ≥1, N=43): (16.3%); Change from Baseline in PSSD Sign Score, LSMean (Week 16, 25 mg QD): −31.7; Change from Baseline in PSSD Symptom Score, LSMean (Week 16, 25 mg QD): −28.0; Change from Baseline in PSSD Sign Score, Mean (Week 16, 50 mg QD): −42.7; Change from Baseline in PSSD Sign Score, Median (Week 16, 50 mg QD): −43.0; Change from Baseline in PSSD Symptom Score, Mean (Week 16, 50 mg QD): −36.7; Change from Baseline in PSSD Symptom Score, Median (Week 16, 50 mg QD): −36.0; Subjects Achieving PSSD Sign Score 0 (%) (Week 16, 50 mg QD, Baseline Sign Score ≥1, N=43): (14.0%); Subjects Achieving PSSD Symptom Score 0 (%) (Week 16, 50 mg QD, Baseline Symptom Score ≥1, N=42): (23.8%); Change from Baseline in PSSD Sign Score, LSMean (Week 16, 50 mg QD): −42.9; Change from Baseline in PSSD Symptom Score, LSMean (Week 16, 50 mg QD): −35.4; Change from Baseline in PSSD Sign Score, Mean (Week 16, 100 mg BID): −51.1; Change from Baseline in PSSD Sign Score, Median (Week 16, 100 mg BID): −55.0; Change from Baseline in PSSD Symptom Score, Mean (Week 16, 100 mg BID): −44.0; Change from Baseline in PSSD Symptom Score, Median (Week 16, 100 mg BID): −42.0; Subjects Achieving PSSD Sign Score 0 (%) (Week 16, 100 mg BID, Baseline Sign Score ≥1, N=42): (14.3%); Subjects Achieving PSSD Symptom Score 0 (%) (Week 16, 100 mg BID, Baseline Symptom Score ≥1, N=42): (26.2%); Change from Baseline in PSSD Sign Score, LSMean (Week 16, 100 mg BID): −50.6; Change from Baseline in PSSD Symptom Score, LSMean (Week 16, 100 mg BID): −40.2; Change from Baseline in PSSD Sign Score, Median (Week 16, 100 mg QD): −45.0; Change from Baseline in PSSD Symptom Score, Mean (Week 16, 100 mg QD): −29.4; Change from Baseline in PSSD Symptom Score, Median (Week 16, 100 mg QD): −31.0; Subjects Achieving PSSD Sign Score 0 (%) (Week 16, 100 mg QD, Baseline Sign Score ≥1, N=43): (16.3%); Subjects Achieving PSSD Symptom Score 0 (%) (Week 16, 100 mg QD, Baseline Symptom Score ≥1, N=43): (27.9%); Change from Baseline in PSSD Sign Score, LSMean (Week 16, 100 mg QD): −45.3; Change from Baseline in PSSD Symptom Score, LSMean (Week 16, 100 mg QD): −36.8; Change from Baseline in PSSD Sign Score, Mean (Week 24, 25 mg BID): −39.8; Change from Baseline in PSSD Sign Score, Median (Week 24, 25 mg BID): −41.0; Change from Baseline in PSSD Symptom Score, Mean (Week 24, 25 mg BID): −33.3; Change from Baseline in PSSD Symptom Score, Median (Week 24, 25 mg BID): −29.0; Subjects Achieving PSSD Sign Score 0 (%) (Week 24, 25 mg BID, Baseline Sign Score ≥1, N=41): (4.9%); Subjects Achieving PSSD Symptom Score 0 (%) (Week 24, 25 mg BID, Baseline Symptom Score ≥1, N=41): (7.3%); Change from Baseline in PSSD Sign Score, LSMean (Week 24, 25 mg BID): −37.7; Change from Baseline in PSSD Symptom Score, LSMean (Week 24, 25 mg BID): −32.1; Change from Baseline in PSSD Sign Score, Mean (Week 24, 25 mg QD): −38.6; Change from Baseline in PSSD Sign Score, Median (Week 24, 25 mg QD): −44.5; Change from Baseline in PSSD Symptom Score, Mean (Week 24, 25 mg QD): −32.9; Change from Baseline in PSSD Symptom Score, Median (Week 24, 25 mg QD): −33.0; Subjects Achieving PSSD Sign Score 0 (%) (Week 24, 25 mg QD, Baseline Sign Score ≥1, N=43): (14.0%); Subjects Achieving PSSD Symptom Score 0 (%) (Week 24, 25 mg QD, Baseline Symptom Score ≥1, N=43): (20.9%); Change from Baseline in PSSD Sign Score, LSMean (Week 24, 25 mg QD): −31.6; Change from Baseline in PSSD Symptom Score, LSMean (Week 24, 25 mg QD): −25.3; Change from Baseline in PSSD Sign Score, Mean (Week 24, 50 mg QD): −45.7; Change from Baseline in PSSD Sign Score, Median (Week 24, 50 mg QD): −47.5; Change from Baseline in PSSD Symptom Score, Mean (Week 24, 50 mg QD): −38.8; Change from Baseline in PSSD Symptom Score, Median (Week 24, 50 mg QD): −40.0; Subjects Achieving PSSD Sign Score 0 (%) (Week 24, 50 mg QD, Baseline Sign Score ≥1, N=43): (9.3%); Subjects Achieving PSSD Symptom Score 0 (%) (Week 24, 50 mg QD, Baseline Symptom Score ≥1, N=42): (14.3%); Change from Baseline in PSSD Sign Score, LSMean (Week 24, 50 mg QD): −45.3; Change from Baseline in PSSD Symptom Score, LSMean (Week 24, 50 mg QD): −36.3; Change from Baseline in PSSD Sign Score, Mean (Week 24, 100 mg BID): −51.6; Change from Baseline in PSSD Sign Score, Median (Week 24, 100 mg BID): −53.0; Change from Baseline in PSSD Symptom Score, Mean (Week 24, 100 mg BID): −44.8; Change from Baseline in PSSD Symptom Score, Median (Week 24, 100 mg BID): −44.0; Subjects Achieving PSSD Sign Score 0 (%) (Week 24, 100 mg BID, Baseline Sign Score ≥1, N=42): (19.0%); Subjects Achieving PSSD Symptom Score 0 (%) (Week 24, 100 mg BID, Baseline Symptom Score ≥1, N=42): (21.4%); Change from Baseline in PSSD Sign Score, LSMean (Week 24, 100 mg BID): −50.0; Change from Baseline in PSSD Symptom Score, LSMean (Week 24, 100 mg BID): −40.3; Change from Baseline in PSSD Sign Score, Mean (Week 24, 100 mg QD): −41.9; Change from Baseline in PSSD Sign Score, Median (Week 24, 100 mg QD): −44.0; Change from Baseline in PSSD Symptom Score, Mean (Week 24, 100 mg QD): −28.4; Change from Baseline in PSSD Symptom Score, Median (Week 24, 100 mg QD): −26.0; Subjects Achieving PSSD Sign Score 0 (%) (Week 24, 100 mg QD, Baseline Sign Score ≥1, N=43): (11.6%); Subjects Achieving PSSD Symptom Score 0 (%) (Week 24, 100 mg QD, Baseline Symptom Score ≥1, N=43): (25.6%); Change from Baseline in PSSD Sign Score, LSMean (Week 24, 100 mg QD): −46.3; Change from Baseline in PSSD Symptom Score, LSMean (Week 24, 100 mg QD): −36.4; Change from Baseline in PSSD Sign Score, Mean (Week 24, Placebo → 100 mg QD): −40.2; Change from Baseline in PSSD Sign Score, Median (Week 24, Placebo → 100 mg QD): −40.0; Change from Baseline in PSSD Symptom Score, Mean (Week 24, Placebo → 100 mg QD): −26.6; Change from Baseline in PSSD Symptom Score, Median (Week 24, Placebo → 100 mg QD): −26.0; Subjects Achieving PSSD Sign Score 0 (%) (Week 24, Placebo → 100 mg QD, Baseline Sign Score ≥1, crossed-over subjects only): (8.6%); Subjects Achieving PSSD Symptom Score 0 (%) (Week 24, Placebo → 100 mg QD, Baseline Symptom Score ≥1, crossed-over subjects only): (11.4%); Change from Baseline in PSSD Sign Score, LSMean (Week 24, Placebo → 100 mg QD): −40.3; Change from Baseline in PSSD Symptom Score, LSMean (Week 24, Placebo → 100 mg QD): −29.2; Change from Baseline in PSSD Sign Score, Mean (Week 32, 25 mg BID): −38.3; Change from Baseline in PSSD Sign Score, Median (Week 32, 25 mg BID): −38.0; Change from Baseline in PSSD Symptom Score, Mean (Week 32, 25 mg BID): −31.0; Change from Baseline in PSSD Symptom Score, Median (Week 32, 25 mg BID): −28.0; Subjects Achieving PSSD Sign Score 0 (%) (Week 32, 25 mg BID, Baseline Sign Score ≥1, N=41): (4.9%); Subjects Achieving PSSD Symptom Score 0 (%) (Week 32, 25 mg BID, Baseline Symptom Score ≥1, N=41): (7.3%); Change from Baseline in PSSD Sign Score, LSMean (Week 32, 25 mg BID): −38.9; Change from Baseline in PSSD Symptom Score, LSMean (Week 32, 25 mg BID): −31.4; Change from Baseline in PSSD Sign Score, Mean (Week 32, 25 mg QD): −37.2; Change from Baseline in PSSD Sign Score, Median (Week 32, 25 mg QD): −39.0; Change from Baseline in PSSD Symptom Score, Mean (Week 32, 25 mg QD): −32.5; Change from Baseline in PSSD Symptom Score, Median (Week 32, 25 mg QD): −32.0; Subjects Achieving PSSD Sign Score 0 (%) (Week 32, 25 mg QD, Baseline Sign Score ≥1, N=43): (9.3%); Subjects Achieving PSSD Symptom Score 0 (%) (Week 32, 25 mg QD, Baseline Symptom Score ≥1, N=43): (20.9%); Change from Baseline in PSSD Sign Score, LSMean (Week 32, 25 mg QD): −31.3; Change from Baseline in PSSD Symptom Score, LSMean (Week 32, 25 mg QD): −26.2; Change from Baseline in PSSD Sign Score, Mean (Week 32, 50 mg QD): −39.7; Change from Baseline in PSSD Sign Score, Median (Week 32, 50 mg QD): −45.0; Change from Baseline in PSSD Symptom Score, Mean (Week 32, 50 mg QD): −35.9; Change from Baseline in PSSD Symptom Score, Median (Week 32, 50 mg QD): −32.0; Subjects Achieving PSSD Sign Score 0 (%) (Week 32, 50 mg QD, Baseline Sign Score ≥1, N=43): (9.3%); Subjects Achieving PSSD Symptom Score 0 (%) (Week 32, 50 mg QD, Baseline Symptom Score ≥1, N=42): (14.3%); Change from Baseline in PSSD Sign Score, LSMean (Week 32, 50 mg QD): −39.0; Change from Baseline in PSSD Symptom Score, LSMean (Week 32, 50 mg QD): −32.9; Change from Baseline in PSSD Sign Score, Mean (Week 32, 100 mg BID): −52.3; Change from Baseline in PSSD Sign Score, Median (Week 32, 100 mg BID): −54.0; Change from Baseline in PSSD Symptom Score, Mean (Week 32, 100 mg BID): −45.5; Change from Baseline in PSSD Symptom Score, Median (Week 32, 100 mg BID): −47.0; Subjects Achieving PSSD Sign Score 0 (%) (Week 32, 100 mg BID, Baseline Sign Score ≥1, N=42): (21.4%); Subjects Achieving PSSD Symptom Score 0 (%) (Week 32, 100 mg BID, Baseline Symptom Score ≥1, N=42): (23.8%); Change from Baseline in PSSD Sign Score, LSMean (Week 32, 100 mg BID): −51.0; Change from Baseline in PSSD Symptom Score, LSMean (Week 32, 100 mg BID): −40.9; Change from Baseline in PSSD Sign Score, Mean (Week 32, 100 mg QD): −42.3; Change from Baseline in PSSD Sign Score, Median (Week 32, 100 mg QD): −43.0
